Reference: patent US10369123B2, “Perk activator for the treatment of neurodegenerative diseases” (DEUTSCHES ZENTRUM FÜR NEURODEGENERATIVE ERKRANKUNGEN E.V. …, priority 2014, dated 2019)

Tested on: paired helical filament tau (AT180)
Assay: Immunohistochemistry of P301S mouse hippocampus
Type: in vivo
Conditions: P301S mice, 2 mg/kg i.p. once daily for 6 weeks from 17 weeks of age, vs saline
Procedure: For the efficacy trial in the late disease stage (Xu et al. 2014), P301S mice and wild type littermates received once daily i.p. injections of 2 mg/kg CCT020312 or saline from 17 to 22 weeks of age (n=12 for CCT020312 treated P301S mice, n=9 for other groups); they were analyzed with the Rotarod test in the 23rd week of age.
Twelve hours after the last injection, animals were anesthetized by i.p. injections of pentobarbital at (100 mg/kg) and transcardially perfused with 0.1 M phosphate buffer for 2 min, then fixed for 10 min with 4% paraformaldehyde. Post-fixation of the brain was done in 4% paraformaldehyde at 4° C. for 48 h. Their brains were prepared for histological analysis, as described (Xu et al. 2014). For the immunoblot analysis in P301S mice and wild type mice were sacrificed by cervical dislocation, their brains were frozen on dry ice and stored at −80° C. for Western blot analysis.
Fixed brains (n=6 per group) were cut into 30 μm-thickness of coronal sections with a cryomicrotome (CM3050 S, Leica). […]

SMILES: CCN(CC)CCC(=O)N1N=C(c2c(-c3ccccc3)c3cc(Br)ccc3[nH]c2=O)CC1c1ccc(Br)cc1 (stereo not shown) [CCT020312, 6-bromo-3-[5-(4-bromo-phenyl)-1-(3-diethylamino-propionyl)-4,5-dihydro-1H-pyrazol-3-yl]-4-phenyl-1H-quinolin-2-one]
- AT180-immunoreactivity in the hippocampal region, histology: decreased
